Assay results taken from patent US6140333A, “N-acyl cyclic amine derivatives” (priority 1998, dated 2000).

Tests used:
[1] = tested on: muscarinic M3 receptor; assay: Bronchodilation in dogs (oral administration), methacholine provocation test; assay type: in vivo, dog (beagle); conditions: 0.1 mg/kg, P.O., 4 hrs later
Description: Tests for Antagonism Against Muscarinic M3 Receptor (in vivo)
Tests for Bronchodilation in Dogs (oral administration)
Male beagles of 12 to 24 months of age, weight 10 to 15 kg, were anesthetized with pentobarbital (30 mg/kg, iv.), and the trachea of each dog was intubated. The sensitivity of the airway (methacoline reaction threshold value) was measured at least twice at two weeks' intervals by a methacoline provocation test, and dogs manifesting a reproducible methacoline reaction threshold value^1) were selected. To those dogs whose methacholine reaction threshold value was established, the test compound was orally administered (0.1 mg/kg). Four hours after the administration, a methacoline provocation test was again conducted, and the methacholine reaction threshold value^2) after the administration of the test compound was measured. The brochodilator activity of the test compound was determined by the following equation: [formula]
The methacholine provocation test was conducted using an Astograph TCK-6100H model (Chest). Methacholine chloride was used as brochoconstritor, which was diluted with isotonic sodium chloride solution in 10 grade concentration levels from 40,000 μg/ml to 20,000, 10,000, 5,000, 2,500, 1,250, 625, 312.5, 156 and 78 μg/ml. The test animals were caused to inhale these methacoline aerosols for 1 min. at a time, starting with the lowest concentration upward, and the respiratory resistance was continuously recorded. The concentration of methacoline at which the respiratory resistance reached a value twice its initial level was deemed to be the methacholine threshold value.

[2] = target: T1, m2 muscarinic acetylcholine receptor (Homo sapiens, UniProt P08172); assay: biochemical; assay type: binding; conditions: CHO cells expressing m2; 0.2 nM [3H]-N-methylscopolamine, pH 7.4, 120 min, room temperature
T1 construct: purchased Receptor Biology Inc; host or cells: CHO cells
T1 sequence (P08172 1-466): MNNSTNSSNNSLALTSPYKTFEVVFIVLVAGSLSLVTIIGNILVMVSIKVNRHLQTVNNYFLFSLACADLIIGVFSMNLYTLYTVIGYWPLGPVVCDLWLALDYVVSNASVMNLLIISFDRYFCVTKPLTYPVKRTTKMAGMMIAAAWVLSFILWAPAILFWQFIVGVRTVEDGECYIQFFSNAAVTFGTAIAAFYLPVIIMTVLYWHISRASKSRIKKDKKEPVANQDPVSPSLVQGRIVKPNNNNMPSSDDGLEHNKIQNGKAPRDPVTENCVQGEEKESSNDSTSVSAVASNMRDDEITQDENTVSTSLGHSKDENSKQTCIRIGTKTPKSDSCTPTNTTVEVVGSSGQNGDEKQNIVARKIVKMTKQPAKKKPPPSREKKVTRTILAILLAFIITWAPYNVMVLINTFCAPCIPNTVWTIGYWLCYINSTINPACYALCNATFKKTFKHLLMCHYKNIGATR
Description: (§1) These tests were performed according to a modification of the method of Hargreaves et al. (Br. J. Pharmacol. 107: pp. 494-501, 1992). Thus, CHO cells expressing m2 and m3 muscarinic acetylcholine receptors (Receptor Biology Inc.) were incubated with 0.2 nM [^3 H]-N-methylscopolamine (84Ci/mmol, New England Nuclear, Inc.) and each compound of the present invention to be tested in 0.5 ml of 50 mM tris-HCl--10 mM MgCl2 --1 mM EDTA (pH 7.4) for 120 minutes at room temperature (about 20 to 25° C.), followed by suction filtration with a glass filter (Uni-Filter plate GF/C; Packard Instruments Co., Ind.) and washing four times with 1 ml of ice-cold Tris-HCl buffer. After the filter was dried for 1 hour at 50° C., a scintillator (Miroscinti 0; Packard Instruments Co., Inc.) was added, and the radioactivity of [^3 H]-N-methylscopolamine adsorbed by the filter was counted by a liquid scintillation counter (TopCount™; Packard Instruments Co., Inc.). Non-specific binding of [^3 H]-N-methylscopolamine was measured in the presence of 1 μM N-methylscopolamine, which was added. According to the method of Cheng and Prusoff (Biochem. Pharmacol. 22: pp. 3099-3108, 1973), the binding affinity (Ki value) of the compound of the present invention for muscarinic receptors was calculated from the concentration (IC50) of the test compound which achieved 50% inhibition of the binding of [^3 H]-N-methylscopolamine, labeled ligand.

[3] = target: T2, m3 muscarinic acetylcholine receptor (Homo sapiens, UniProt P20309); assay: biochemical; assay type: binding; conditions: for Ki: CHO cells expressing m3, 0.2 nM [3H]-N-methylscopolamine, pH 7.4, 120 min, room temperature; for m2/m3 (ratio of Ki): selectivity m2 over m3, binding
T2 construct: purchased Receptor Biology Inc; host or cells: CHO cells
T2 sequence (P20309 whole entry): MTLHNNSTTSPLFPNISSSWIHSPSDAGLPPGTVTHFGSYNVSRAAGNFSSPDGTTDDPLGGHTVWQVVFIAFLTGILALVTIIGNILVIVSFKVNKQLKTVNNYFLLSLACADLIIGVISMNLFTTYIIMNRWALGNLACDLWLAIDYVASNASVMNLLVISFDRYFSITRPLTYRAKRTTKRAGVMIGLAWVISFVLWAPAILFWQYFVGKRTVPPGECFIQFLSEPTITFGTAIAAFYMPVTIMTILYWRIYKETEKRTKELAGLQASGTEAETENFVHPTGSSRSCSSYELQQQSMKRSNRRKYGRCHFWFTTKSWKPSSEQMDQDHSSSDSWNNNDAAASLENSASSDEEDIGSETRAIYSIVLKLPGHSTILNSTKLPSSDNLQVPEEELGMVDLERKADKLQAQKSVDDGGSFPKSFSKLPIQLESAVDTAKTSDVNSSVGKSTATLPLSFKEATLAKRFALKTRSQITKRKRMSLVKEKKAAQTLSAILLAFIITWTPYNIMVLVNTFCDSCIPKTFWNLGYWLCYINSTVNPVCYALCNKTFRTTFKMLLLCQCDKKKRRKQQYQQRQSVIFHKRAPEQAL
Description: as §1

[4] = target: T3, M2 receptor (right atrium) (Rattus norvegicus, UniProt P10980); assay: Antagonism to M2 receptor in isolated rat right atrium (carbachol dose-response); conditions: 32° C.
T3 construct: the right atrium was isolated; from tissue; host or cells: isolated right atrium of male SD rat
T3 sequence (P10980 1-466): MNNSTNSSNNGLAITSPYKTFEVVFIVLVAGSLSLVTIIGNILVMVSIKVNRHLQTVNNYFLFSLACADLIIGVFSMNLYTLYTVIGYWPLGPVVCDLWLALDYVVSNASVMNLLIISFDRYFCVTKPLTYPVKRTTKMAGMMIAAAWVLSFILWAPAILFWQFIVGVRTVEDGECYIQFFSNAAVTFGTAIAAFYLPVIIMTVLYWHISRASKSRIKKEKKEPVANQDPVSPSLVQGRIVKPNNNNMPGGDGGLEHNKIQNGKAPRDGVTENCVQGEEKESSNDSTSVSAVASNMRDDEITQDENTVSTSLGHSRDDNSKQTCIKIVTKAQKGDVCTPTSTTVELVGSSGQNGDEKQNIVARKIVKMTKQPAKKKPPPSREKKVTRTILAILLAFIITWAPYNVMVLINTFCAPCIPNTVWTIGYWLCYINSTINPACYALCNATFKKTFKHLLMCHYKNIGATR
Description: 1) Tests for Antagonism to M2 Receptor in an Isolated Rat Right Atrium
These tests were performed according to a conventional method. A male SD strain rat (weighing 300-500 g) was killed by exsanguination, and the right atrium was isolated. This preparation was isometrically suspended in organ bath filled with 20 ml of Krebs-Hanseleit solution (gassed with 95% O2 -5% CO2 and kept at 32° C.) with an initial tension of 0.5 g. The heart rate was recorded with a heart rate counter. After the preparation was equilibrated for 30 minutes, carbachol (10^-9 to 10^-6 M) was cumulatively administered in three-fold increasing doses. Thus, a decrease in heart rate was measured to obtain a dose-response curve for the control experiment. After the preparation was washed with fresh solution to restore the heart rate, a test compound was administered thereto. Ten minutes later, carbachol was cumulatively administered again. Responses to carbachol were expressed as percentages based on the heart rate before the administration of carbachol as 100%. The antagonistic potency (KB value) of the test compound was determined from the degree of shift of the dose-response curve obtained by treatment with individual test compound of the present invention.

[5] = target: T4, M3 receptor (trachea) (Rattus norvegicus, UniProt P08483); assay: Antagonism to airway M3 receptor in isolated rat trachea (carbachol dose-response); conditions: for Kb: isolated rat trachea, carbachol, 32° C.; for M2/M3 (ratio of KB): selectivity right atrium M2 over trachea M3, in vitro
T4 construct: the trachea was isolated; from tissue; host or cells: isolated trachea of male SD rat
T4 sequence (P08483 whole entry): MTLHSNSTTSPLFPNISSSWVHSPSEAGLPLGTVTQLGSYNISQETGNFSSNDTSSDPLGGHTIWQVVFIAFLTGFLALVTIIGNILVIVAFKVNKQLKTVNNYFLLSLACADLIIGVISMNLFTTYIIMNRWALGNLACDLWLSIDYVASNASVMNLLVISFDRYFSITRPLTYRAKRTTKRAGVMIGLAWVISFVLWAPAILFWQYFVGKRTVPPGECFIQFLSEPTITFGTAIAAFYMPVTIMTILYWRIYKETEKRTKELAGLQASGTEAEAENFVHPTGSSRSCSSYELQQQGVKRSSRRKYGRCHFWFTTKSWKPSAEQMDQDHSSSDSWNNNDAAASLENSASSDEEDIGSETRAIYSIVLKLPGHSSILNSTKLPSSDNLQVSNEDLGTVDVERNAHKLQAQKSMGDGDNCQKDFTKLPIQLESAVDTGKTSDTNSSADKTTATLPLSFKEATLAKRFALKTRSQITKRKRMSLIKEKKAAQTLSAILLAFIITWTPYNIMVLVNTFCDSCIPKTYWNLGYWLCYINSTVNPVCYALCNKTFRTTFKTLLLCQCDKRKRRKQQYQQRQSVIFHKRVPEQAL
Description: 2) Tests for Antagonism to the Airway M3 Receptor in an Isolated Rat Right Trachea
These tests were performed according to a conventional method. A male SD strain rat (weighing 300-500 g) was killed by exsanguination, and the trachea was isolated. Annular segments (2 mm wide) were cut out from the trachea and cut transversely at the anterior cartilage part to make an open ring preparation. The preparation was suspended in a Magnus tube filled with 5 ml of Krebs-Hanseleit solution (gassed with 95% O2 -5% CO2 and kept at 32° C.) with an initial tension of 1.0 g and a resting tension of 0.6 g. The tension of the preparation was recorded isometrically. After the preparation was equilibrated for an hour, the preparation was caused to contract twice with 10^-4 M carbachol, and the second contraction induced by carbachol was used as the reference contraction. After the preparation was washed with fresh solution to be restored to the base line, a test compound was administered thereto (or no treatment was given). Ten minutes later, carbachol (10^-8 to 10^-3 M) was cumulatively administered in three-fold increasing doses to obtain a dose-response curve. The dose-response curve was plotted by expressing responses as percentages based on the reference contraction of the preparation as 100%. The antagonistic potency (KB value) of the test compound was determined from the degree of shift of the dose-response curve obtained by treatment with the test compound.

SMILES | Methacoline Provocation Test Shift value [1] | Ki [2] | Ki [3] | m2/m3 (ratio of Ki) [3] | Kb [4] | Kb [5] | M2/M3 (ratio of KB) [5]
CC1NCCC12CCN(C(=O)[C@](O)(c1ccccc1)[C@@H]1CCC(F)(F)C1)CC2 (single isomer, unassigned) [Example 43 ((IS*)-substance), (1R*)- and (1S*)-8-{(2R)-2-((1R)-3,3-difluorocyclopentyl)-2-hydroxy-2-phenylacetyl}-1-methyl-2,8-diazaspiro[4.5]decane] | 22 | 21 nM | 0.26 nM | 80 |  |  | 
Cl.NC1CCN(C(=O)[C@](O)(c2ccccc2)[C@@H]2CCC(F)(F)C2)CC1 [Example 1, 4-Amino-1-{(2R)-2-((1R)-3,3-difluorocyclopentyl)-2-hydroxy-2-Phenylacetyl}piperidine monohydrochloride] |  |  |  |  | 730 nM | 20 nM | 37
O=C(N1CCC2(CCNC2)CC1)[C@](O)(c1ccccc1)[C@@H]1CCC(F)(F)C1 [Example 26, 8-{(2R)-2-((1R)-3,3-difluorocyclopentyl)-2-hydroxy-2-phenylacetyl}-2,8-diazaspiro[4.5]decane] | 7.1 | 27 nM | 0.44 nM | 60 | 75 nM | 0.83 nM | 75
O=C(N1C[C@H]2CCNCC[C@H]2C1)[C@](O)(c1ccccc1)[C@@H]1CCC(F)(F)C1 [Example 29, 9-{(2R)-2-((1R)-3,3-difluorocyclopentyl)-2-hydroxy-2-phenylacetyl}-cis-4,9-diazabicyclo[5.3.0]decane] | 22 | 230 nM | 1.2 nM | 190 | 230 nM | 1.6 nM | 140
O=C(N1CC2=C(CNC2)C1)[C@](O)(c1ccccc1)[C@@H]1CCC(F)(F)C1 [Example 35, 3-{(2R)-2-((1R)-3,3-difluorocyclopentyl)-2-hydroxy-2-phenylacetyl}-3,7-diazabicyclo[3.3.0]oct-1(5)-ene] | 5.8 | 670 nM | 4.2 nM | 160 | 2400 nM | 8 nM | 300
